# From PubChem BioAssay (NCI)
# Values joined by “and” are separate entries in the source; they are usually repeats but may differ in a detail not shown here. Equal entries are not always repeated.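 Interpolation was linear, between the two tested concentrations surrounding the appropriate level; five concentrations were tested over 48 hours in 96-well plates. Abbreviation: GI50, concentration required for 50% inhibition of growth. TGI marks complete inhibition of growth.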
# What was measured:
# Assay in all cases: growth of human tumour cells (NCI), 48 h
# IGROV1 ovarian = test system: IGROV1 ovarian
# K-562 leukemia = test system: K-562 leukemia
# OVCAR-8 ovarian = test system: OVCAR-8 ovarian
# SF-295 CNS = test system: SF-295 CNS
# SNB-75 CNS = test system: SNB-75 CNS
# SW-620 colon = test system: SW-620 colon
# U251 CNS = test system: U251 CNS
# UO-31 renal = test system: UO-31 renal
# COLO 205 colon = test system: COLO 205 colon
# NCI-H522 lung = test system: NCI-H522 lung
SMILES,TGI (IGROV1 ovarian),TGI (K-562 leukemia),TGI (OVCAR-8 ovarian),TGI (SF-295 CNS),TGI (SNB-75 CNS),TGI (SW-620 colon),TGI (U251 CNS),TGI (UO-31 renal),TGI (COLO 205 colon),TGI (NCI-H522 lung),GI50 (COLO 205 colon),GI50 (IGROV1 ovarian),GI50 (K-562 leukemia),GI50 (OVCAR-8 ovarian),GI50 (SF-295 CNS),GI50 (SNB-75 CNS),GI50 (SW-620 colon),GI50 (U251 CNS),GI50 (UO-31 renal),GI50 (NCI-H522 lung)
CCCCC(C(=O)C(=O)Nc1ccc(C)cc1C)C(=O)C(C)C (stereo not drawn),> 100 µM,> 100 µM,> 100 µM,> 100 µM,> 100 µM,> 100 µM,> 100 µM,> 100 µM,–,–,–,–,–,–,–,–,–,–,–,–
CC(=O)Nc1ccccc1-c1nc2ccccc2nc1-c1ccccc1,> 100 µM,> 100 µM,> 100 µM,> 100 µM,> 100 µM,> 100 µM,> 100 µM,> 100 µM,> 100 µM,–,–,–,–,–,–,–,–,–,–,–
CCCCCC/C=C/C#CCCCCCCCC(=O)O,> 100 µM,> 100 µM,> 100 µM,> 100 µM,> 100 µM,> 100 µM,> 100 µM,–,> 100 µM,> 100 µM,–,–,–,–,–,–,–,–,–,–
O=C1/C(=C/c2cccnc2)SC(=S)N1Cc1ccco1,> 42.3 µM,> 48 µM,> 48.5 µM,> 100 µM,–,> 100 µM,30.6 µM,8.02 µM,> 42.2 µM,4.1 µM,–,–,–,–,–,–,–,–,–,–
Oc1ccc2ccccc2c1CCc1c(O)ccc2ccccc12,–,24.9 µM,27.6 µM,28.7 µM,18.3 µM,28.4 µM,26 µM,–,29.1 µM,–,–,–,–,–,–,–,–,–,–,–
COc1cccc(/C=N/[N-]C(=O)c2ccncc2)c1[O-].[Mn+2].[OH3+],> 100 µM,9.69 µM,> 100 µM,> 100 µM,> 100 µM,> 100 µM,> 100 µM,26.5 µM,> 100 µM,–,4.49 µM,8.29 µM,2.9 µM,3.77 µM,16.2 µM,26.8 µM,4.42 µM,5.45 µM,3.83 µM,–
O=C1OC(CC(=O)c2ccc(F)cc2)C(Cl)=C1Cl (stereo not drawn),72.7 µM,> 100 µM,40.2 µM,> 100 µM,–,46.2 µM,34.3 µM,38.5 µM,–,34.9 µM,–,–,–,–,–,–,–,–,–,–
CN1CCN(CCCOc2cccc3nc(Nc4cc(Cl)cc(Cl)c4)ccc23)CC1,3.59 µM,–,3.48 µM,3.32 µM,–,3.68 µM,3.1 µM,2.95 µM,3.13 µM,3.17 µM,1.63 µM,1.68 µM,–,1.94 µM,1.72 µM,–,1.97 µM,1.72 µM,1.49 µM,1.64 µM
CC(=O)OC1C[C@H]2C(OC(=O)c3ccccc3)C3C4(OC(C)=O)COC4C[C@H](OC(C)=O)[C@@]3(C)C(OC(C)=O)[C@H](OC(C)=O)C(=C1C)C2(C)C (stereo partly drawn),> 100 µM,> 100 µM,> 100 µM,> 100 µM,45.2 µM,> 100 µM,–,79.8 µM,> 100 µM,79.2 µM,–,–,–,–,–,–,–,–,–,–
C[C@@H](O)[C@@H](C)Oc1nc(Nc2ccc(S(=N)(=O)C3CC3)cc2)ncc1C(F)(F)F (stereo partly drawn),25.2 µM,> 100 µM,–,> 55.3 µM,0.0554 µM,4.35 µM,13.2 µM,0.0895 µM,0.0328 µM,0.81 µM,0.0158 µM,0.0291 µM,0.0425 µM,–,0.0312 µM,0.0162 µM,0.0281 µM,0.0252 µM,0.0239 µM,0.0328 µM
Cc1cc2c(cc1Cl)SC(N(c1ccccc1Cl)S(=O)(=O)c1ccc(Br)s1)=NS2(=O)=O,89.8 µM,54.6 µM,–,> 100 µM,48.7 µM,30.4 µM,46.3 µM,62 µM,28 µM,31.7 µM,12.2 µM,19.8 µM,18.7 µM,–,30.7 µM,17.3 µM,14.9 µM,16.5 µM,19.9 µM,13.5 µM
COC(=O)c1cc(-c2ccc3ccccc3c2)[nH]c(=O)c1C#N,> 100 µM,–,> 100 µM,> 100 µM,> 100 µM,> 100 µM,> 100 µM,> 100 µM,> 100 µM,> 100 µM,–,–,–,–,–,–,–,–,–,–
NC(Cc1ccccc1)C(=O)OCN1C(=O)C2C3C=CC(C2C1=O)C1C2C(=O)N(COC(=O)C(N)Cc4ccccc4)C(=O)C2C31 (stereo not drawn),> 100 µM and 70.7 µM,63.2 µM and > 100 µM,54.1 µM and 43.7 µM,> 100 µM,64.6 µM and 62.3 µM,51.3 µM and 52.8 µM,39.1 µM and 34.6 µM,–,32.8 µM and 32.2 µM,–,–,–,–,–,–,–,–,–,40.6 µM,–
C/C(=C1/N=C(c2cc([N+](=O)[O-])ccc2Cl)N(c2ccc(Br)cc2)C1=O)c1ccc(N(CCC#N)CCC#N)cc1C,> 100 µM,29.3 µM,> 100 µM,> 100 µM,> 100 µM,25.5 µM,–,> 100 µM,97 µM,–,–,–,–,–,–,–,–,–,–,–
COc1ccc(C(c2ccccc2C(=O)O)c2ccc(OC)c3ccccc23)c2ccccc12,25.5 µM,> 100 µM,34.8 µM,25.6 µM,–,44.4 µM,26.6 µM,19.4 µM,30.2 µM,32.7 µM,–,–,–,–,–,–,–,–,–,–
NC(N)=NN=c1c(=O)c2ccccc2c1=O,35.3 µM,–,22.5 µM,27.7 µM,23.7 µM,4.76 µM,15.8 µM,20.1 µM,32.4 µM,32.8 µM,17.9 µM,17.2 µM,–,10.1 µM,13.6 µM,11.4 µM,1.96 µM,4.36 µM,6.81 µM,17.7 µM
C/C=C1/CN2CCC34C(=C(C(=O)OC)C1CC23)Nc1ccc(O)cc14 (stereo not drawn),> 100 µM,–,> 100 µM,> 100 µM,> 100 µM,> 100 µM,> 100 µM,> 100 µM,> 100 µM,> 100 µM,–,–,–,–,–,–,–,–,–,–
CCOC(=O)/C(=C/CC/C(C)=C/CC/C(C)=C/CCc1ccoc1)CC(=O)N1CCCCC1,47.2 µM,96 µM,40.2 µM,5.08 µM,35.3 µM,19.2 µM,–,12.8 µM,6.05 µM,9.2 µM,2.32 µM,14 µM,3.91 µM,3.97 µM,1.55 µM,4.1 µM,4.8 µM,–,2.8 µM,2.75 µM
O=C1C=CC2(CCCCCCC2=O)CC1 (stereo not drawn),> 100 µM,–,> 100 µM,> 100 µM,> 100 µM,> 100 µM,> 100 µM,> 100 µM,> 100 µM,> 100 µM,–,–,–,–,–,–,–,–,–,–
